From patent publication US20080004561A1, “Method for Treating Oncological, Virulent and Somatic Diseases, Method for Controlling Treatment Efficiency, Pharmaceutical Agents and Composition for Carrying Out Said Treatment” (priority 2005, published 2008)

Experiments:
LLC tumor = LLC tumor growth under Doxorubicin, plasma DNA of chemotherapy-treated mice and DNase I (Example 14); assay type: in vivo, C57B1 mice
Excerpt: Blood plasma DNA of tumor-bearing mice was received according to technique described above. Highly metastatic and low metastatic stains of mice' Luice lung carcinoma and Erlich carcinoma were used. Cells were cultivated in RPMI-1640 media with adding of 10% embryonic calf serum, 1% penicillin—streptomycin in 5% carbon dioxide atmosphere. For tumor induction in mice, cells were cultivated until the monolayer, than were detached with trypsin-EDTA solution. Cells were washed trice by centrifuging in phosphate buffer and were resuspensed until their concentration have become 0.5×10^7/ml. Viability was defined by inclusion of methylene blue in hemocytometer. Suspensions that contained 95% of viable cells were used for administration to animals.
Mice of C57B1 line and white not thoroughbred mice from “Rappolovo” animal house were used. Weight of animals was 24-26 grams. Animals were contained in cages, for 6-7 mice per one cage on a standard diet without water restriction. LLC cells in dose of 5×10^5 in 100 mkl of phosphate buffer were injected in soft tissues of thigh. Erlich tumor was subcutaneously replanted on the right side by injection of 0.2 ml 10% cells' suspension in isotonic sodium chloride solution.

Erlich carcinoma = assay: Combined use of DNase and Doxorubicin, Erlich tumor growth (Example 3); assay type: in vivo, mice; conditions: Doxorubicin 2 mg/kg intravenously once a day and/or DNase 0.5 mg/kg intraperitoneally four times a day, day 3 to 7; 7th day after transplantation
Description: Bovine pancreatic DNase I (Fermentas) and human recombinant DNase […]) were used. DNase I solution for injections were prepared by dissolving of DNase matrix solution in sterile phosphate buffer directly before administration. […] Blood plasma DNA of tumor-bearing mice was received according to technique described above. Highly metastatic and low metastatic stains of mice' Luice lung carcinoma and Erlich carcinoma were used. […] For tumor induction in mice, cells were cultivated until the monolayer, than were detached with trypsin-EDTA solution. Cells were washed trice by centrifuging in phosphate buffer and were resuspensed until their concentration have become 0.5×10^7/ml. Viability was defined by inclusion of methylene blue in hemocytometer. […] Mice of C57B1 line and white not thoroughbred mice from “Rappolovo” animal house were used. Weight of animals was 24-26 grams. Animals were contained in cages, for 6-7 mice per one cage on a standard diet without water restriction. LLC cells in dose of 5×10^5 in 100 mkl of phosphate buffer were injected in soft tissues of thigh. […] Group 1-10 mice transplanted with Erlich carcinoma (control). Group 2-10 mice replanted with Erlich carcinoma. […] Group 3-10 mice replanted with Erlich carcinoma. […] Group 4-10 mice replanted with Erlich carcinoma. […] Results of experiments were estimated according to tumor's growth inhibition (TGI) that were expressed in percents to control data received at last day of DNase injection with standard formula using.

P-glycoprotein = P-glycoprotein expression in Erlich carcinoma, immunohistochemical staining (Example 13); assay type: in vivo, mice; conditions: 5 day therapy from 3rd day: Doxorubicin 2 mg/kg intravenously daily, DNase I 0.5 mg/kg four times a day; tissue on 8th day
Description: Mice were subjected to course of 5 day therapy with Doxorubicin (2 mg/kg intravenously daily) or Doxorubicin+DNase I (0.5 mg/kg four times a day during 5 days)
Tissue preparations were executed on the 8th day of tumor's transplantation.

[1] = Toxic effect of human DNase I injection on animals; assay type: in vivo; conditions: single and multiple injection of up to 2.5 mg/kg
[2] = Influence of DNase I therapy on old rats' life time (Example 19); assay type: in vivo; conditions: 24 month old rats, 500 mg/kg intravenously 2 times a week during 2 months
Description: White not thoroughbred 24 month old rats were used in experiment. In the study group (10 animals) rats starting from the age of 24 months were subjected to intravenous administration of polysialated human DNase I at […] (equivalent dose of non-modified enzyme) 2 times a week during 2 months. Control group of animals got the administration of placebo. Average life time of rats from control group was 27.8 months. Average life time of rats from experimental group was 30.1 months.

Molecule: O=P1(N(CCCl)CCCl)NCCCO1 (centres unmarked) [Cyclophosphamide]
- tumor inhibition at day 8 (LLC tumor; mouse, in vivo): 30%

Molecule: COc1cccc2c1C(=O)c1c(O)c3c(c(O)c1C2=O)C[C@@](O)(C(=O)CO)C[C@@H]3O[C@H]1C[C@H](N)[C@H](O)[C@H](C)O1 [Doxorubicin]
- T% (tumor's growth inhibition) (Erlich carcinoma): 42%
- Tumor's volume (Erlich carcinoma): 57 +/− 10
- Tumor's size (LLC tumor; 8th day after transplantation, Doxorubicin 2 mg/kg i.v. daily day 3-8, DNA 0.05 mkg i.v. day 1 and 3 of treatment, DNase I 0.5 mg/kg i.p. 4 times a day, first and second days): 67 +/− 7
- tumor inhibition at day 8 (LLC tumor; Doxorubicin 2 mg/kg daily for 5 days from day 3, Cyclophosphamide 15 mg/kg intraperitoneally once on 3rd day): 50%
- P-glycoprotein expression in tumor tissue (P-glycoprotein): Multifocal expression

B1: human DNase I: human recombinant DNase I (Dornase; Gentech) (protein, UniProt P24855 23-282, looked up)
Deoxyribonuclease-1: LKIAAFNIQTFGETKMSNATLVSYIVQILSRYDIALVQEVRDSHLTAVGKLLDNLNQDAPDTYHYVVSEPLGRNSYKERYLFVYRPDQVSAVDSYYYDDGCEPCGNDTFNREPAIVRFFSRFTEVREFAIVPLHAAPGDAVAEIDALYDVYLDVQEKWGLEDVMLMGDFNAGCSYVRPSQWSSIRLWTSPTFQWLIPDSADTTATPTHCAYDRIVVAGMLLRGAVVPDSALPFNFQAAYGLSDQLAQAISDHYPVEVMLK
- Toxic effect on animals [1]: no toxic effect

B2: polysialated human DNase I: polysialated human DNase I, dose as equivalent of non-modified enzyme (protein, UniProt P24855 23-282, looked up)
Deoxyribonuclease-1: B1 Deoxyribonuclease-1
modifications: polysialylated
notes: polysialated human DNase I, dose as equivalent of non-modified enzyme
- Average life time [2]: 30.1 months
